How the values were obtained:
Experiment in all cases: relative viability (nuclei count vs DMSO), 5 days (fraction); higher = more cells survive
[1] = compound: COc1cc2nc(N3CCCN(C)CC3)nc(NC3CCN(Cc4ccccc4)CC3)c2cc1OC + Cc1nc(NC(=O)N2CCC[C@H]2C(N)=O)sc1-c1ccnc(C(C)(C)C(F)(F)F)c1 [Alpelisib] (partner 2 µM)
Procedure, shortened: (§1)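 Lung cancer cell lines in 1536-well plates were dosed by pin tool the day after seeding, either with one drug alone or with a fixed anchor-drug dose plus five library-drug doses (not always all listed) in √10 steps. After 5 days, cells were fixed and their nuclei stained in one step (final 0.05% Triton X-100, 1% formaldehyde, 1 ug/ml Hoechst), then counted on 4× images. Relative viability is the nuclei count in treated wells divided by that in vehicle wells. Values are medians of duplicate plates.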

[2] = compound: Cc1cc([C@@H](C)Nc2ccccc2C(=O)O)c2nc(N3CCOCC3)cc(=O)n2c1 [AZD6482] + CC(C)C[C@H](NC(=O)[C@H](Cc1ccccc1)NC(=O)c1cnccn1)B(O)O [Bortezomib] (partner 0.002 µM)
Procedure, shortened: as §1

[3] = compound: Cc1cc([C@@H](C)Nc2ccccc2C(=O)O)c2nc(N3CCOCC3)cc(=O)n2c1 [AZD6482] + C[C@]1(O)C[C@@H](c2nc(-c3ccc4ccc(-c5ccccc5)nc4c3)c3c(N)nccn32)C1 [Linsitinib] (partner 1 µM)
Procedure, shortened: as §1

[4] = compound: COc1cc2nc(N3CCCN(C)CC3)nc(NC3CCN(Cc4ccccc4)CC3)c2cc1OC + O=C(c1cc(Cc2n[nH]c(=O)c3ccccc23)ccc1F)N1CCN(C(=O)C2CC2)CC1 [Olaparib] (partner 8 µM)
Procedure, shortened: as §1

NCI-H2126
relative viability ([1]; first compound 0.2 µM): 0.83
relative viability ([1]; first compound 0.6325 µM): 0.734
relative viability ([1]; first compound 2 µM): 0.761
relative viability ([1]; first compound 6.325 µM): 0.717
relative viability ([2]; first compound 0.08 µM): 1.12
relative viability ([2]; first compound 0.253 µM): 1.09
relative viability ([2]; first compound 0.8 µM): 1.1
relative viability ([2]; first compound 2.53 µM): 0.851
relative viability ([2]; first compound 8 µM): 0.786
relative viability ([3]; first compound 0.08 µM): 0.551
relative viability ([3]; first compound 0.253 µM): 0.591
relative viability ([3]; first compound 0.8 µM): 0.518
relative viability ([3]; first compound 2.53 µM): 0.485
relative viability ([3]; first compound 8 µM): 0.548
relative viability ([4]; first compound 0.2 µM): 1.01
relative viability ([4]; first compound 0.6325 µM): 0.892
relative viability ([4]; first compound 2 µM): 0.883
relative viability ([4]; first compound 6.325 µM): 0.919

HOP-62
relative viability ([1]; first compound 0.2 µM): 0.878
relative viability ([1]; first compound 0.6325 µM): 0.932
relative viability ([1]; first compound 2 µM): 0.829
relative viability ([1]; first compound 6.325 µM): 0.877
relative viability ([2]; first compound 0.08 µM): 0.795
relative viability ([2]; first compound 0.253 µM): 1.12
relative viability ([2]; first compound 0.8 µM): 0.752
relative viability ([2]; first compound 2.53 µM): 0.939
relative viability ([2]; first compound 8 µM): 1.18
relative viability ([3]; first compound 0.08 µM): 1.1
relative viability ([3]; first compound 0.253 µM): 0.836
relative viability ([3]; first compound 0.8 µM): 1.12
relative viability ([3]; first compound 2.53 µM): 0.67
relative viability ([3]; first compound 8 µM): 0.841
relative viability ([4]; first compound 0.2 µM): 0.393
relative viability ([4]; first compound 0.6325 µM): 0.202
relative viability ([4]; first compound 2 µM): 0.355
relative viability ([4]; first compound 6.325 µM): 0.537

CAL-12T
relative viability ([1]; first compound 0.2 µM): 1.21
relative viability ([1]; first compound 0.6325 µM): 1.23
relative viability ([1]; first compound 2 µM): 1.16
relative viability ([1]; first compound 6.325 µM): 1.15
relative viability ([2]; first compound 0.08 µM): 0.843
relative viability ([2]; first compound 0.8 µM): 0.895
relative viability ([2]; first compound 2.53 µM): 0.426
relative viability ([2]; first compound 8 µM): 0.597
relative viability ([3]; first compound 0.08 µM): 0.711
relative viability ([3]; first compound 0.253 µM): 0.604
relative viability ([3]; first compound 0.8 µM): 0.632
relative viability ([3]; first compound 2.53 µM): 0.273
relative viability ([3]; first compound 8 µM): 0.445
relative viability ([4]; first compound 0.2 µM): 0.676
relative viability ([4]; first compound 0.6325 µM): 0.689
relative viability ([4]; first compound 2 µM): 0.8
relative viability ([4]; first compound 6.325 µM): 0.699

NCI-H520
relative viability ([1]; first compound 0.2 µM): 0.947
relative viability ([1]; first compound 0.6325 µM): 0.98
relative viability ([1]; first compound 2 µM): 0.867
relative viability ([1]; first compound 6.325 µM): 0.452
relative viability ([2]; first compound 0.08 µM): 0.489
relative viability ([2]; first compound 0.253 µM): 0.223
relative viability ([2]; first compound 0.8 µM): 0.481
relative viability ([2]; first compound 8 µM): 0.306
relative viability ([3]; first compound 0.08 µM): 0.773
relative viability ([3]; first compound 0.253 µM): 0.623
relative viability ([3]; first compound 0.8 µM): 0.59
relative viability ([3]; first compound 8 µM): 0.412
relative viability ([4]; first compound 0.2 µM): 0.332
relative viability ([4]; first compound 0.6325 µM): 0.321
relative viability ([4]; first compound 2 µM): 0.324
relative viability ([4]; first compound 6.325 µM): 0.144

From the supplement of paper PMC10307832
